# According to patent US20040231558A1, “Water-color ink” (priority 2001, published 2004):
# Assays:
# [1] = Solubility in water of the salt
# [2] = Evaluation of light fastness-1 (OD value of printed portion after 100 hours xenon fadeometer); assay type: physicochemical; details: ink prepared as in Example 1 from the salt named in the row; OD value of printed portion after 100 hours xenon fadeometer
# How it was run: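 Prints were made on a piezo ink-jet printer. Optical density of the printed portion was measured after 100 hours of irradiation in a xenon fadeometer.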
# [3] = Evaluation of light fastness-2 (OD value of printed portion after 400 hours xenon fadeometer); assay type: physicochemical; details: ink prepared as in Example 1 from the salt named in the row; OD value of printed portion after 400 hours xenon fadeometer
# How it was run: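 Ink loaded into a piezo ink-jet printer (EM-930C) and printed; printed portion irradiated for 400 hours in a xenon fadeometer, then printing density (OD value) measured to judge light fastness.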
# [4] = Evaluation of moisture resistance (image-recorded paper at 40° C. and humidity 85%, visual observation); assay type: physicochemical; details: image-recorded paper at 40° C. and humidity 85%, visually observed
# [5] = Evaluation of storage stability of ink (40° C. for 3 months, insoluble matter and clogging); assay type: physicochemical; details: recording liquid stored at 40° C. for 3 months; insoluble matter and clogging
# How it was run: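 Ink stored at 40° C. for 3 months, then checked for precipitated insoluble matter. Clogging assessed after long continuous recording on a piezo-type ink-jet printer.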
SMILES,Solubility in water ([1]; salt type M1 to M4),(A)-1 light fastness-1 [2],(A)-2 light fastness-2 [3],(B) moisture resistance [4],(C) storage stability [5],Solubility in water ([1]; % by weight)
Cc1c(N=Nc2cc(S(=O)(=O)O)c(C(=O)O)cc2C(=O)O)c(O)[nH]c(=O)c1C#N [compound 7],>10%,⊚,⊚,Δ,◯,–
CNC(=O)c1cc(C(=O)O)c(N=Nc2c(O)[nH]c(=O)c(C#N)c2C)cc1C(=O)O [compound 14],>3%,⊚,⊚,◯,◯,–
Cc1c(N=Nc2c(C(=O)O)cccc2C(=O)O)c(O)[nH]c(=O)c1C#N [compound 16],>5%,⊚,⊚,Δ,◯,–
Cc1c(N=Nc2c(C(=O)O)cccc2C(=O)O)c(O)n(C(O)CO)c(=O)c1C#N (stereo not drawn) [compound 43],>5%,⊚,⊚,Δ,◯,–
Cc1c(N=Nc2cccc(C(=O)O)c2C(=O)O)c(O)n(C(=O)O)c(=O)c1C#N [compound 46],>5%,⊚,Δ,◯,Δ,–
Cc1c(N=Nc2cccc(C(=O)O)c2C(=O)O)c(O)n(CCCC(=O)O)c(=O)c1C#N [compound 48],>5%,⊚,◯,◯,◯,–
Cc1c(N=Nc2cccc(C(=O)O)c2C(=O)O)c(O)n(Cc2ccc(C(=O)O)cc2)c(=O)c1C#N [compound 58],>5%,⊚,◯,Δ,◯,–
Cc1c(N=Nc2cc(C(=O)O)ccc2C(=O)O)c(O)n(CC(=O)O)c(=O)c1C#N [compound 77],>5%,⊚,⊚,Δ,◯,–
Cc1c(N=Nc2cccc(C(=O)O)c2C(=O)O)c(O)n(CS(=O)(=O)O)c(=O)c1C#N [compound 105],>5%,⊚,◯,Δ,◯,–
Cc1c(N=Nc2cccc(C(=O)O)c2C(=O)O)c(O)n(CCS(=O)(=O)O)c(=O)c1C#N [compound 106],>5%,⊚,⊚ and Δ,Δ and ◯,◯ and Δ,–
Cc1c(C(=O)O)ccc(C(=O)O)c1N=Nc1c(C)c(C#N)c(=O)n(CCCS(=O)(=O)O)c1O [compound 137],>5%,⊚,⊚,Δ,◯,–
Cc1c(N=Nc2cc(C(=O)O)ccc2C(=O)O)c(O)n(-c2cc(S(=O)(=O)O)cc(S(=O)(=O)O)c2)c(=O)c1C#N [compound 142],>8%,⊚,◯,◯,◯,–
Cc1c(N=Nc2cc(C(=O)O)ccc2C(=O)O)c(O)n(Cc2cc(S(=O)(=O)O)cc(S(=O)(=O)O)c2)c(=O)c1C#N [compound 149],>10%,⊚,◯,◯,◯,–
Cc1c(C(=O)O)ccc(C(=O)O)c1N=Nc1c(C)c(C#N)c(=O)n(CC(O)CC(=O)O)c1O (stereo not drawn) [compound 164],>8%,⊚,◯,◯,◯,–
Cc1c(N=Nc2cc(C(=O)[O-])ccc2C(=O)[O-])c(O)n(CCNc2nc(Cl)nc(NCCn3c(O)c(N=Nc4cc(C(=O)[O-])ccc4C(=O)[O-])c(C)c(C#N)c3=O)n2)c(=O)c1C#N.[K+].[K+].[K+].[K+] [potassium salt of compound No. 245],–,⊚,∘,⊚,∘,≥ 3%
